Experimental data reported in patent US20100093532A1, “Pesticidal Mixtures Comprising Phenylsemicarbazone and Clothianidin” (BASF SE, priority 2007, published 2010).

System: Mediterranean fruitfly (Ceratitis capitata)
Experiment: Control of Mediterranean fruitfly, egg and larval mortality in 96-well microtiter plates with insect diet
Type: in vivo
Settings: sprayed onto insect diet with C. capitata eggs, 5 days at 28±1° C., 80±5% RH, egg and larval mortality visually assessed
Method: For evaluating control of Mediterranean fruitfly (Ceratitis capitata) the test unit consisted of 96-well-microtiter plates containing an insect diet and 50-80 C. capitata eggs. The compounds or mixtures were formulated using a solution containing 75% water and 25% DMSO. Different concentrations of formulated compounds or mixtures were sprayed onto the insect diet at 5 μl, using a custom built micro atomizer, at two replications.
For experimental mixtures in these tests identical volumes of both mixing partners at the desired concentrations respectively, were mixed together.
After application, microtiter plates were incubated at 28±1° C., 80±5% RH (relative humidity) for 5 days. Egg and larval mortality was then visually assessed.

| Structure (SMILES) | Average Control (%) (Clothianidin 2 ppm) | Average Control (%) (Metaflumizone 20 ppm) |
| --- | --- | --- |
| CN/C(=N\[N+](=O)[O-])NCc1cnc(Cl)s1 [Clothianidin, (E)-1-(2-chloro-1,3-thiazol-5-ylmethyl)-3-methyl-2-nitroguanidine] | 0% |  |
| N#Cc1ccc(CC(=NNC(=O)Nc2ccc(OC(F)(F)F)cc2)c2cccc(C(F)(F)F)c2)cc1 (racemic) [Metaflumizone, 2-[2-(4-cyanophenyl)-1-[3-(trifluoromethyl)phenyl]ethylidene]-N-[4-(trifluoromethoxy)phenyl]hydrazinecarboxamide] |  | 0% |
